Experimental data: ChEMBL document CHEMBL5252541, “Repurposing antipsychotic drugs into antifungal agents: Synergistic combinations of azoles and bromperidol derivatives in the treatment of various fungal infections” (Eur J Med Chem, 2017)
Calls of active or inactive are those of the source. The rule behind the calls is not given here.

Experiments:
[1] = Cytotoxicity against mouse J774.A1 cells assessed as cell survival at 64 microg/ml by XTT assay; format: toxicity, cell-based; settings: at 64 µg/mL, read-out: Activity
[2] = tested on: Candida albicans; test: Partial synergistic antifungal activity against Candida albicans ATCC 64124 assessed as fractional inhibitory concentration index measured for 72 hrs in presence of ketoconazole; format: functional
[3] = tested on: Candida albicans; test: Partial synergistic antifungal activity against Candida albicans ATCC MYA-1003 assessed as fractional inhibitory concentration index measured for 72 hrs in presence of posaconazole; format: functional
[4] = tested on: Candida albicans; test: Antifungal activity against Candida albicans ATCC MYA-2310 measured after 48 hrs by broth microdilution analysis; format: functional
[5] = tested on: Nakaseomyces glabratus; test: Additive antifungal activity against Candida glabrata ATCC 2001 assessed as fractional inhibitory concentration index measured for 72 hrs in presence of posaconazole; format: functional
[6] = tested on: Candida albicans; test: Additive antifungal activity against Candida albicans ATCC MYA-2876 assessed as fractional inhibitory concentration index measured for 72 hrs in presence of voriconazole; format: functional
[7] = tested on: Candida albicans; test: Synergistic antifungal activity against Candida albicans ATCC 64124 assessed as compound MIC measured after 48 hrs in presence of ketoconazole by checkboard based microplate reader analysis; format: functional
[8] = Cytotoxicity against HEK293 cells assessed as cell survival by XTT assay; format: toxicity, cell-based; settings: human, read-out: Activity
[9] = tested on: Candida albicans; test: Synergistic antifungal activity against Candida albicans ATCC 64124 assessed as fractional inhibitory concentration index measured for 72 hrs in presence of posaconazole; format: functional
[10] = tested on: Candida albicans; test: Partial synergistic antifungal activity against Candida albicans ATCC 10231 assessed as fractional inhibitory concentration index measured for 72 hrs in presence of ketoconazole; format: functional
[11] = tested on: HEK293; test: Cytotoxicity against human HEK293 cells assessed as cell survival at 32 microg/ml in presence of voriconazole by XTT assay
[12] = tested on: Candida albicans; test: Antifungal activity against Candida albicans ATCC MYA-2876 measured after 48 hrs by broth microdilution analysis; format: functional
[13] = tested on: Candida albicans; test: Antifungal activity against Candida albicans ATCC 90819 measured after 48 hrs by broth microdilution analysis; format: functional
[14] = tested on: Candida albicans; test: Antifungal activity against Candida albicans ATCC 10231 measured after 48 hrs by broth microdilution analysis; format: functional
[15] = tested on: Candida albicans; test: Potency index, ratio of posaconazole MIC to test compound MIC for antifungal activity against Candida albicans ATCC 10231 measured after 48 hrs by broth microdilution analysis; format: functional
[16] = tested on: Candida albicans; test: Partial synergistic antifungal activity against Candida albicans ATCC 10231 assessed as fractional inhibitory concentration index measured for 72 hrs in presence of posaconazole; format: functional
[17] = tested on: Candida albicans; test: Partial synergistic antifungal activity against Candida albicans ATCC 64124 assessed as fractional inhibitory concentration index measured for 72 hrs in presence of itraconazole; format: functional
[18] = Cytotoxicity against mouse J774.A1 cells assessed as cell survival by XTT assay; format: toxicity, cell-based; settings: read-out: Activity
[19] = tested on: Candida albicans; test: Fungicidal activity against Candida albicans ATCC 64124 assessed as reduction in colony forming units at 2 to 8 times MIC incubated after 6 hrs by time kill assay; format: functional, organism-based
[20] = Cytotoxicity against mouse J774.A1 cells assessed as cell survival at 16 microg/ml by XTT assay; format: toxicity, cell-based; settings: at 16 µg/mL, read-out: Activity
[21] = tested on: Nakaseomyces glabratus; test: Antifungal activity against Candida glabrata ATCC 2001 measured after 48 hrs by broth microdilution analysis; format: functional
[22] = Cytotoxicity against human HEK293 cells assessed as cell survival at 16 microg/ml in presence of posaconazole by XTT assay; format: toxicity, cell-based; settings: at 16 µg/mL
[23] = tested on: Candida albicans; test: Partial synergistic antifungal activity against Candida albicans ATCC MYA-1003 assessed as fractional inhibitory concentration index measured for 72 hrs in presence of voriconazole; format: functional
[24] = tested on: Candida albicans; test: Synergistic antifungal activity against Candida albicans ATCC 64124 assessed as compound MIC measured after 48 hrs in presence of itraconazole by checkboard based microplate reader analysis; format: functional
[25] = tested on: Candida albicans; test: Additive antifungal activity against Candida albicans ATCC MYA-1237 assessed as fractional inhibitory concentration index measured for 72 hrs in presence of voriconazole; format: functional
[26] = tested on: Aspergillus terreus; test: Antifungal activity against Aspergillus terreus ATCC MYA-3633 measured after 48 hrs by broth microdilution analysis; format: functional
[27] = tested on: Candida albicans; test: Antifungal activity against Candida albicans ATCC MYA-1237 measured after 48 hrs by broth microdilution analysis; format: functional
[28] = tested on: J774.A1; test: Cytotoxicity against mouse J774.A1 cells assessed as cell survival up to 4 microg/ml by XTT assay; format: toxicity, cell-based; settings: dose < 4 µg/ml
[29] = tested on: Candida albicans; test: Synergistic antifungal activity against Candida albicans ATCC 64124 assessed as compound MIC measured after 48 hrs in presence of posaconazole by checkboard based microplate reader analysis; format: functional
[30] = tested on: Candida albicans; test: Synergistic antifungal activity against Candida albicans ATCC 64124 assessed as fractional inhibitory concentration index measured for 72 hrs in presence of voriconazole; format: functional
[31] = tested on: Candida albicans; test: Synergistic antifungal activity against Candida albicans ATCC 90819 assessed as fractional inhibitory concentration index measured for 72 hrs in presence of voriconazole; format: functional
[32] = tested on: Candida albicans; test: Synergistic antifungal activity against Candida albicans ATCC 64124 assessed as compound MIC measured after 48 hrs in presence of voriconazole by checkboard based microplate reader analysis; format: functional
[33] = tested on: Candida albicans; test: Partial synergistic antifungal activity against Candida albicans ATCC MYA-2310 assessed as fractional inhibitory concentration index measured for 72 hrs in presence of voriconazole; format: functional
[34] = tested on: Nakaseomyces glabratus; test: Synergistic antifungal activity against Candida glabrata ATCC 2001 assessed as fractional inhibitory concentration index measured for 72 hrs in presence of posaconazole; format: functional
[35] = tested on: Candida albicans; test: Synergistic antifungal activity against Candida albicans ATCC 90819 assessed as fractional inhibitory concentration index measured for 72 hrs in presence of posaconazole; format: functional
[36] = Cytotoxicity against human BEAS-2B cells assessed as cell survival by XTT assay; format: toxicity, cell-based; settings: read-out: Activity
[37] = tested on: Nakaseomyces glabratus; test: Additive antifungal activity against Candida glabrata ATCC 2001 assessed as fractional inhibitory concentration index measured for 72 hrs in presence of voriconazole; format: functional
[38] = tested on: BEAS-2B; test: Cytotoxicity against human BEAS-2B cells assessed as cell survival at 8 microg/ml by XTT assay; format: toxicity, cell-based; settings: dose 8 µg/ml
[39] = tested on: Candida albicans; test: Additive antifungal activity against Candida albicans ATCC 64124 assessed as fractional inhibitory concentration index measured for 72 hrs in presence of fluconazole; format: functional
[40] = tested on: Candida albicans; test: Partial synergistic antifungal activity against Candida albicans ATCC MYA-2310 assessed as fractional inhibitory concentration index measured for 72 hrs in presence of posaconazole; format: functional
[41] = tested on: Candida albicans; test: Antifungal activity against Candida albicans ATCC MYA-1003 measured after 48 hrs by broth microdilution analysis; format: functional
[42] = tested on: Candida albicans; test: Partial synergistic antifungal activity against Candida albicans ATCC 10231 assessed as fractional inhibitory concentration index measured for 72 hrs in presence of voriconazole; format: functional
[43] = tested on: HEK293; test: Cytotoxicity against HEK293 cells assessed as cell survival at 8 microg/ml by XTT assay; format: toxicity, cell-based; settings: human, dose 8 µg/ml
[44] = tested on: Candida albicans; test: Additive antifungal activity against Candida albicans MYA-1003 assessed as fractional inhibitory concentration index measured for 72 hrs in presence of voriconazole

MIC [4]: > 128 µg/mL | MIC [7]: 64 µg/mL | MIC [12]: > 128 µg/mL | MIC [13]: > 128 µg/mL | MIC [14]: > 128 µg/mL | MIC [21]: > 128 µg/mL | MIC [24]: 64 µg/mL | MIC [26]: > 128 µg/mL | MIC [27]: > 128 µg/mL | MIC [29]: 4 µg/mL | MIC [32]: 8 µg/mL | MIC [41]: > 128 µg/mL
SMILES: O=C(CCCN1CCC(O)(c2ccc(Br)cc2)CC1)c1ccc(F)cc1 [BROMPERIDOL]
viability at 64 microg/ml [1]: 30% | fractional inhibitory concentration index (FICI) [2]: 0.75 | fractional inhibitory concentration index (FICI) [3]: 0.75 | fractional inhibitory concentration index (FICI) [5]: 0.51 | fractional inhibitory concentration index (FICI) [6]: 2 | viability [8]: > 100% | fractional inhibitory concentration index (FICI) [9]: 0.16 | fractional inhibitory concentration index (FICI) [10]: 0.75 | Activity [11]: Non-Toxic | Ratio [15]: 8 | fractional inhibitory concentration index (FICI) [16]: 0.75 | fractional inhibitory concentration index (FICI) [17]: 0.56 | viability [18]: > 100% | Activity [19]: Active | viability at 16 microg/ml [20]: 72% | viability at 16 microg/ml [22]: 40% | fractional inhibitory concentration index (FICI) [23]: 0.52 | fractional inhibitory concentration index (FICI) [25]: 2 | Activity [28]: Non-Toxic | fractional inhibitory concentration index (FICI) [30]: 0.19 | fractional inhibitory concentration index (FICI) [31]: 0.5 | fractional inhibitory concentration index (FICI) [33]: 0.53 | fractional inhibitory concentration index (FICI) [34]: 0.5 | fractional inhibitory concentration index (FICI) [35]: 0.5 | viability [36]: > 100% | fractional inhibitory concentration index (FICI) [37]: 0.51 | Activity [38]: Non-Toxic | fractional inhibitory concentration index (FICI) [39]: 1.5 | fractional inhibitory concentration index (FICI) [40]: 0.52 | fractional inhibitory concentration index (FICI) [42]: 0.75 | Activity [43]: Non-Toxic | fractional inhibitory concentration index (FICI) [44]: 0.52
